One assay concerns diabetic rat model. Description: Evaluation tests for lowering glycated hemoglobin (HbA1c) and blood lipid in diabetic rats (high-lipid emulsion + streptozotocin). It is filed as in vivo, Sprague-Dawley (SD) rats. Particulars: positive control group, metformin hydrochloride solution, intragastric once per day for 8 weeks. The procedure: Evaluation tests for lowering glycated hemoglobin (HbA1c) were described below.
Healthy male Sprague-Dawley (SD) rats with a body weight of 185-225 g were selected and fed adaptively for one week. After adaptive feeding, the SD rats were randomly divided into six groups each for 20 rats. One of the six groups was selected as a blank control group, and fed with ordinary feed. The rest five groups were subjected to intragastric administration with high-lipid emulsion for 10 mL/kg per day for 1 month. After the last feeding, rats were fasted for 12 h expect for water. The rats fed with high-lipid emulsion were subjected to disposable intraperitoneal injection with streptozotocin STZ solution for 25 mg/kg to establish a diabetic rat model. After streptozotocin injection for 72 h, the rats were fasted for 12 h expect for water and was taken blood samples from the tail to detect fasting blood sugar. The rat with a fasting blood glucose>10.0 mmol/L was considered as a successful model. The blank control group was intraperitoneally injected with citric acid-sodium citrate buffer solution.
The rats that were successfully modeled were randomly divided into model group, positive control group, low-dose group, medium-dose group and high-dose group according to blood sugar and body weight, with 20 rats in each group. […]

Another assay relates to diabetic animal model. Description: Evaluation tests for lowering blood sugar (urine sugar, fasting blood sugar) in streptozotocin rats. Particulars: positive control group, metformin hydrochloride solution, intragastric once per day for 15 days. It is filed as in vivo. The protocol:
Evaluation tests for lowering blood sugar were described below.
100 of healthy male rats were selected, numbered and fed adaptively in normal environment for 2 weeks, and free to eat and drink.
After adaptive feeding, the rats were randomly divided into 5 groups with 20 rats in each group. Only one group was selected as the blank control group, the rest groups were subjected to disposable intraperitoneal injection with 5% streptozotocin STZ solution for 200 mg/kg. If there were coma among those rats within 2 h, glucose sugar solution was fed until awake. Two days later, the fasting blood sugar was detected. The rat with a blood sugar of more than 10 was selected as a diabetic animal model.
The rats that were successfully modeled were randomly divided into model group, positive control group, low-dose group, medium-dose group and high-dose group according to blood sugar and body weight, with 20 rats in each group. The polysaccharide-peptide composites prepared in Examples 1-3 were diluted with water into intragastric solutions, which were fed to the low-dose group for 1.0 g/kg, the medium-dose group for 2.0 g/kg and the high-dose group for 3.0 g/kg, respectively. […]
During the experiment, rats of each group were […] every day for 15 consecutive days. […] At the end of the experiment, the final blood sugar content was recorded.

For the next assay, the system named is high-lipid model rats. Description: Evaluation tests for lowering blood lipid (TC, TG) in rats given high lipid diet. The conditions noted are these: positive control group, simvastatin solution 50 mg/kg bw d, intragastric. It is filed as in vivo. An excerpt: Evaluation tests for lowering blood lipid were described below. 60 of healthy male rats were selected, numbered and fed adaptively in normal environment for 2 weeks, and free to eat and drink. After the adaptive feeding, the rats were randomly divided into 6 groups with 10 rats in each group, consisting of a blank control group, a high-lipid model group, a positive treatment group, a high-dose group, a medium-dose group and a low-dose group. Except the blank control group, the other groups were given high lipid diet. The polysaccharide-peptide composites prepared in this application and simvastatin were respectively diluted. The positive control group was given simvastatin solution by intragastric administration for 50 mg/kg bw d, and the high, medium and low-dose groups were given polysaccharide-peptide solutions for 100 mg/kg bw d, 50 mg/kg bw d and 25 mg/kg bw d, respectively. Other groups were intragastric with corresponding volume of distilled water. The treatment period lasted for 4 weeks.

Where a name gives a salt, the structure may show the parent alone.

From patent US20220323554A1, “POLYSACCHARIDE-PEPTIDE COMPLEX FOR LOWERING BLOOD SUGAR, BLOOD LIPID AND GLYCOSYLATED HEMOGLOBIN LEVELS, AND PREPARATION METHOD” (CHINA YUNHONG HOLDINGS CO., LTD., priority 2019, published 2022) come the findings set out here.

For the molecule `CN(C)C(=N)N=C(N)N` [metformin hydrochloride], in the assay with diabetic rat model (model group 3.29 ± 0.58), the “Content of blood lipid” value was determined as 2.52 ± 0.24 mmol/L. Further, the “Content of HbA1c” value in the assay with diabetic rat model (model group 50.78 ± 3.76) was 35.14 ± 1.25 ng/mL. For the same molecule, the “Content of urine sugar” value in the assay with diabetic animal model (model group 1.74 ± 0.56) is 1.44 ± 0.23 mmol/L. Moreover, the “Content of fasting blood sugar” value in the assay with diabetic animal model (model group 14.86 ± 2.38) was determined as 8.55 ± 1.37 mmol/L.
`CCC(C)(C)C(=O)O[C@H]1C[C@@H](C)C=C2C=C[C@H](C)[C@H](CC[C@@H]3C[C@@H](O)CC(=O)O3)[C@H]21` [simvastatin]: in the assay with high-lipid model rats (model group 0.57 ± 0.18), the “Content of TG” value is recorded as 0.32 ± 0.14 mmol/L. Further, the “Content of TC” value with high-lipid model rats (model group 3.41 ± 0.58) is recorded as 2.59 ± 0.24 mmol/L.
